Data published in ChEMBL document CHEMBL3286092, “Discovery of 1-arylpyrrolidone derivatives as potent p53-MDM2 inhibitors based on molecule fusing strategy” (Bioorg Med Chem Lett, 2014).

Experiments:
[1] = target: E3 ubiquitin-protein ligase Mdm2 (Homo sapiens, UniProt Q00987); experiment: Binding affinity to MDM2 (unknown origin) assessed as inhibition of interaction with p53 after 1 hr by fluorescence polarization binding assay
A549 = experiment: Induction of p53 level in human A549 cells after 4 hrs by Western blotting analysis; type: functional, cell-based

Sequence of E3 ubiquitin-protein ligase Mdm2 (Q00987 whole entry): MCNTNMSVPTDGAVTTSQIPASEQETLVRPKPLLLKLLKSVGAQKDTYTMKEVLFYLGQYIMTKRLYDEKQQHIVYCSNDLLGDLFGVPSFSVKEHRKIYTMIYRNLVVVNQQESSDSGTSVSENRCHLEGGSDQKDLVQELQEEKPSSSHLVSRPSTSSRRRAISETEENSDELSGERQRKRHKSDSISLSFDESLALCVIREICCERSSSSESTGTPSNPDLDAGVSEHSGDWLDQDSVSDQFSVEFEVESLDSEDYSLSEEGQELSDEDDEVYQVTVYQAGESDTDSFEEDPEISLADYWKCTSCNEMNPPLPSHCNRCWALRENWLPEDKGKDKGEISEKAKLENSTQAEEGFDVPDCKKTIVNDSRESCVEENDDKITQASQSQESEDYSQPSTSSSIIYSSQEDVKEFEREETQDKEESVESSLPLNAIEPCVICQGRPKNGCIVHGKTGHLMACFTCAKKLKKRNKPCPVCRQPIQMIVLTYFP

| Compound | Ki [1] [µM] | Activity (A549) |
| --- | --- | --- |
| CC(C)OC1=C(C(=O)c2ccccc2)C(c2ccc(Br)cc2)N(Cc2ccc(C(F)(F)F)cc2F)C1=O (stereo not given) | > 100 |  |
| CC(C)Oc1cc(C(F)(F)F)ccc1CN1C(=O)C(N[C@H](C)c2ccccc2)=C(C(=O)c2ccccc2)C1c1ccc(Br)cc1 (stereo not given in full) |  | Dose-dependent effect |
| CC(C)OC1=C(C(=O)c2ccccc2)C(c2ccc(Br)cc2)N(Cc2ccc(C(F)(F)F)cc2OC(C)C)C1=O (stereo not given) | > 100 |  |

More lines, main results first:

| Ki [1] [µM] | Compound | Activity (A549) |
| --- | --- | --- |
| > 100 | C[C@@H](NC1=C(C(=O)c2ccccc2)C(c2ccc(Br)cc2)N(Cc2ccc(C(F)(F)F)cc2F)C1=O)c1ccccc1 (stereo not given in full) |  |
| > 100 | COc1cc(C(F)(F)F)ccc1CN1C(=O)C(N[C@H](C)c2ccccc2)=C(C(=O)c2ccccc2)C1c1ccc(Br)cc1 (stereo not given in full) |  |
